# Data: patent publication US20080207522A1, “Antimicrobial Peptides” (priority 2004, published 2008)
# What was measured:
# [1] = test system: Pseudomonas aeruginosa strain H1001 fliC::luxCDABE; test: Luminescence-based assay for the non-cleaved (bound) peptides on cellulose membranes; format: cell-based; settings: for Luminescence at the given time in minutes: 0 / Luminescence at the given time in minutes: 20 / Luminescence at the given time in minutes: 40 / Luminescence at the given time in minutes: 60 / Luminescence at the given time in minutes: 80 / Luminescence at the given time in minutes: 100 / Luminescence at the given time in minutes: 120 / Luminescence at the given time in minutes: 180 / Luminescence at the given time in minutes: 240: cellulose-bound peptide; for Luminescence at the given time in minutes: 0: 0 min; for Luminescence at the given time in minutes: 20: 20 min; for Luminescence at the given time in minutes: 40: 40 min; for Luminescence at the given time in minutes: 60: 60 min; for Luminescence at the given time in minutes: 80: 80 min; for Luminescence at the given time in minutes: 100: 100 min; for Luminescence at the given time in minutes: 120: 120 min; for Luminescence at the given time in minutes: 180: 180 min; for Luminescence at the given time in minutes: 240: 240 min; for Activity Class bound: uncleaved cellulose-bound peptides
# Method in brief: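 Peptides remained bound to cellulose spots, which were ethanol-washed and equilibrated in 100 mM Tris pH 7.3. Constitutively lux-expressing P. aeruginosa (OD600 0.35 culture diluted 1:25) added in 10 mM Tris-HCl pH 7.3, 20 mM glucose at 37° C. Luminescence (RLU) followed over 14 time points; peptides binned into six activity classes.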
# [2] = test system: Pseudomonas aeruginosa strain H1001; test: Assay for the cleaved (free, soluble) peptides from cellulose support, luminescence killing assay; format: cell-based; parameters: key: 1: Peptides showing stronger killing than Bac2A at a 4 to 8-fold higher dilution; Peptides showing stronger killing compared to that of Bac2A at a 4-fold higher dilution; 3: Peptides similar to Bac2A; 4: Peptides similar to Bac2A at the highest concentration but demonstrating weaker killing at a 2-fold dilution; 5: Peptides giving very weak or no killing at a 2-fold dilution; 6: Peptides with weak killing activity at the highest concentration; settings: free (cleaved) peptides, killing relative to Bac2A
# Method in brief: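 Cellulose-synthesized peptides (amidated C-terminus, two β-alanines) cleaved by ammonia, released from punched spots 30 min at 37 °C, then serially diluted. P. aeruginosa H1001 (constitutive fliC::luxCDABE) overnight culture diluted 1:500 in LB or 100 mM Tris pH 7.3/20 mM glucose. Killing followed as time-dependent luminescence loss at 37 °C.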
Sequence,Luminescence at the given time in minutes: 0 [1] [RLU],Luminescence at the given time in minutes: 20 [1] [RLU],Luminescence at the given time in minutes: 40 [1] [RLU],Luminescence at the given time in minutes: 60 [1] [RLU],Luminescence at the given time in minutes: 80 [1] [RLU],Luminescence at the given time in minutes: 100 [1] [RLU],Luminescence at the given time in minutes: 120 [1] [RLU],Luminescence at the given time in minutes: 180 [1] [RLU],Luminescence at the given time in minutes: 240 [1] [RLU],Activity Class bound [1],Activity Class Soluble [2]
RRRVIVAVLARI [Bac046],4408,5904,2345,233,76,70,102,48,53,3 (Peptides similar to Bac2A resulting in lux values of less than 500 after 240 min.),3
RRVAIVVIARLR [Bac018],4966,6080,981,82,44,60,62,50,39,2 (Peptides reducing lux values to between 500 and 1000 after 40 min.),2
RRVIAIAVRRLV [Bac050],4803,6715,5157,4430,3915,3428,3246,3206,3590,6 (Peptides having residual luminescence (lux) values greater than 3000 after 240 min.),3
RVLIAARVIRRV [Bac047],4733,6747,5100,4770,4031,3383,3012,2829,2615,5 (Peptides reducing luminescence (lux) values to between 1500 to 3000 after 240 min.),3
RVLRVVRAAIRI [Bac035],5199,6461,4989,4389,4001,3439,3162,2456,2577,5 (Peptides reducing luminescence (lux) values to between 1500 to 3000 after 240 min.),5
VARIVVRLIRAR [Bac013],3890,6850,3930,1584,494,193,111,100,66,3 (Peptides similar to Bac2A resulting in lux values of less than 500 after 240 min.),3
VIALRIAVRRVR [Bac045],4873,6105,2726,554,83,61,37,57,35,3 (Peptides similar to Bac2A resulting in lux values of less than 500 after 240 min.),3
VIALVRARVRRI [Bac049],4926,7239,5219,4106,3188,2524,2059,1687,1794,5 (Peptides reducing luminescence (lux) values to between 1500 to 3000 after 240 min.),3
VILARRRVRIAV [Bac017],4219,7259,5041,3136,1907,1047,578,321,214,3 (Peptides similar to Bac2A resulting in lux values of less than 500 after 240 min.),5
VIVRLAARRVRI [Bac028],5001,6828,5315,5037,4555,4143,3762,3646,4268,6 (Peptides having residual luminescence (lux) values greater than 3000 after 240 min.),5
VLARVVARRIRI [Bac040],4220,6241,4269,3951,3368,2880,2761,2300,2415,5 (Peptides reducing luminescence (lux) values to between 1500 to 3000 after 240 min.),5
VLIRIRRVARAV [Bac008],3718,6695,5154,4426,3671,3164,2786,2703,2890,5 (Peptides reducing luminescence (lux) values to between 1500 to 3000 after 240 min.),2
